Data reported in PubChem BioAssay AID192 (DTP/NCI, 2004).
Where “and” joins values, the source holds several entries; their conditions need not be identical. Identical values can stand only once. Inconclusive results and toxic doses are left out. The calls were made as follows: active = survival T/C of 150% or more; inactive = T/C below 125% in these data. Square brackets hold non-standard residues; d marks the D form. Peptide text beside a SMILES is read from it. * marks the point of attachment. ξ: configuration not given here. ξF = NC(Cc1ccccc1)C(=O)O; ClAc = O=C(CCl)*

Test system: BDF1 mice, B16 melanoma ip, median survival T/C
Experiment: NCI In Vivo Anticancer Drug Screen. Data for tumor model B16 Melanoma (intraperitoneal) in B6D2F1 (BDF1) mice
Settings: endpoint: median survival time, higher = longer survival
In short: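 Mice with transplantable tumors; drug vs vehicle groups; endpoint survival or tumor size; value = T/C.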

[1] = dose: 75.0 mg/kg/injection, schedule: Q01DX009 (ip), vehicle: Klucel (hydroxypropylcellulose) (HPC)
[2] = dose: 150.0 mg/kg/injection, schedule: Q01DX009 (ip), vehicle: Klucel (hydroxypropylcellulose) (HPC)
[3] = dose: 1.25 mg/kg/injection, schedule: Q01DX009 (ip), vehicle: Klucel (hydroxypropylcellulose) (HPC)
[4] = dose: 100.0 mg/kg/injection, schedule: Q01DX009 (ip), vehicle: Klucel (hydroxypropylcellulose) (HPC)
[5] = dose: 200.0 mg/kg/injection, schedule: Q01DX009 (ip), vehicle: Klucel (hydroxypropylcellulose) (HPC)
[6] = dose: 6.25 mg/kg/injection, schedule: Q04DX003 (ip), vehicle: saline with Tween-80
[7] = dose: 12.5 mg/kg/injection, schedule: Q04DX003 (ip), vehicle: saline with Tween-80
[8] = dose: 25.0 mg/kg/injection, schedule: Q04DX003 (ip), vehicle: saline with Tween-80
[9] = dose: 50.0 mg/kg/injection, schedule: Q01DX009 (ip), vehicle: Klucel (hydroxypropylcellulose) (HPC)
[10] = dose: 12.5 mg/kg/injection, schedule: Q01DX009 (ip), vehicle: saline with Tween-80
[11] = dose: 25.0 mg/kg/injection, schedule: Q01DX009 (ip), vehicle: saline with Tween-80
[12] = dose: 50.0 mg/kg/injection, schedule: Q01DX009 (ip), vehicle: saline with Tween-80
[13] = dose: 100.0 mg/kg/injection, schedule: Q01DX009 (ip), vehicle: saline with Tween-80
[14] = dose: 200.0 mg/kg/injection, schedule: Q01DX009 (ip), vehicle: saline with Tween-80
[15] = dose: 6.25 mg/kg/injection, schedule: Q01DX009 (ip), vehicle: saline
[16] = dose: 12.5 mg/kg/injection, schedule: Q01DX009 (ip), vehicle: saline
[17] = dose: 25.0 mg/kg/injection, schedule: Q01DX009 (ip), vehicle: saline
[18] = dose: 3.13 mg/kg/injection, schedule: Q01DX009 (ip), vehicle: saline

Measured: T/C

O=[N+]([O-])c1ccc(O)c(N=Cc2ccc(C=Nc3cc([N+](=O)[O-])ccc3O)cc2)c1
inactive: [1] 89 % of control | [2] 93 % of control

Cn1ncc2c(N)ncnc21
inactive: [3] 102 % of control | dose: 2.5 mg/kg/injection, schedule: Q01DX009 (ip), vehicle: Klucel (hydroxypropylcellulose) (HPC) 111 % of control | dose: 5.0 mg/kg/injection, schedule: Q01DX009 (ip), vehicle: Klucel (hydroxypropylcellulose) (HPC) 105 % of control | dose: 10.0 mg/kg/injection, schedule: Q01DX009 (ip), vehicle: Klucel (hydroxypropylcellulose) (HPC) 119 % of control

Brc1ccc(C[N+]23CN4CN(CN(C4)C2)C3)cc1
inactive: [4] 121 % of control | [5] 115 % of control

Cc1ccc(C(=O)C=C(C(F)(F)F)C(F)(F)F)cc1
inactive: [6] 111 % of control | [7] 100 % of control | [8] 105 % of control

Cc1cc(C)nc(NC(=O)COc2ccc(Cl)cc2)c1
inactive: dose: 12.5 mg/kg/injection, schedule: Q01DX009 (ip), vehicle: Klucel (hydroxypropylcellulose) (HPC) 97 % of control | [9] 97 % of control and 106 % of control

O=C(Nc1nncs1)c1cccs1
inactive: [10] 101 % of control | [11] 109 % of control | [12] 121 % of control | [13] 109 % of control | [14] 106 % of control

CNc1ccccc1C(N)=O
inactive: [4] 94 % of control | [5] 100 % of control

CCCCCCCCCCCCCC[n+]1ccccc1
inactive: dose: 0.06 mg/kg/injection, schedule: Q01DX009 (ip), vehicle: saline with Tween-80 86 % of control and 89 % of control | dose: 0.13 mg/kg/injection, schedule: Q01DX009 (ip), vehicle: saline with Tween-80 90 % of control | dose: 0.25 mg/kg/injection, schedule: Q01DX009 (ip), vehicle: saline with Tween-80 86 % of control | dose: 8.0 micrograms/kg/injection, schedule: Q01DX009 (ip), vehicle: saline 88 % of control | dose: 15.0 micrograms/kg/injection, schedule: Q01DX009 (ip), vehicle: saline 91 % of control | dose: 30.0 micrograms/kg/injection, schedule: Q01DX009 (ip), vehicle: saline 94 % of control | dose: 60.0 micrograms/kg/injection, schedule: Q01DX009 (ip), vehicle: saline 88 % of control

CCCCCn1c(C)cc(/C=C\c2ccc3cc(C)ccc3[n+]2C)c1C
inactive: dose: 0.62 mg/kg/injection, schedule: Q01DX009 (ip), vehicle: Klucel (hydroxypropylcellulose) (HPC) 93 % of control | [3] 87 % of control

O=C(Nc1ccccc1F)c1cccc(C(=O)Nc2ccccc2F)c1
inactive: [9] 101 % of control | [4] 108 % of control | [5] 96 % of control

Oc1ccc(/C=N\N=C\c2ccc(O)cc2)cc1
inactive: [13] 95 % of control | [14] 90 % of control

CSc1ccc(N=Cc2ccc3c(c2)OCO3)cc1
inactive: [4] 90 % of control | [5] 88 % of control

COc1ccc(NC2=CC(C)(C(=O)O)OC2=O)cc1 (stereo unspecified)
inactive: [7] 93 % of control | [8] 102 % of control | dose: 50.0 mg/kg/injection, schedule: Q04DX003 (ip), vehicle: saline with Tween-80 100 % of control

C(=C\c1ccccc1)/C[P+](c1ccccc1)(c1ccccc1)c1ccccc1
inactive: dose: 0.06 mg/kg/injection, schedule: Q01DX009 (ip), vehicle: saline sonified 100 % of control | dose: 1.25 mg/kg/injection, schedule: Q01DX009 (ip), vehicle: saline sonified 93 % of control | dose: 2.5 mg/kg/injection, schedule: Q01DX009 (ip), vehicle: saline sonified 97 % of control | dose: 5.0 mg/kg/injection, schedule: Q01DX009 (ip), vehicle: saline sonified 91 % of control

CC1NCCNCCNCCNC(C)c2cccc1n2 (stereo unspecified)
inactive: [15] 107 % of control | [16] 98 % of control | [17] 102 % of control

[Br][Pt].[NH-]CC[N-]CC[NH-]
inactive: [18] 108 % of control | [15] 90 % of control | [16] 91 % of control | [17] 91 % of control

Cc1ccc(Cl)cc1NC(=O)c1ccccc1Cl
inactive: [4] 108 % of control | [5] 98 % of control

O
inactive: [15] 96 % of control | [16] 112 % of control | dose: 18.75 mg/kg/injection, schedule: Q04DX003 (ip), vehicle: saline 95 % of control | [17] 93 % of control | dose: 37.5 mg/kg/injection, schedule: Q04DX003 (ip), vehicle: saline 97 % of control | dose: 100.0 mg/kg/injection, schedule: Q02DX009 (ip), vehicle: saline 97 % of control | dose: 200.0 mg/kg/injection, schedule: Q02DX009 (ip), vehicle: saline 100 % of control | dose: 400.0 mg/kg/injection, schedule: Q02DX009 (ip), vehicle: saline 96 % of control | dose: 600.0 mg/kg/injection, schedule: Q02DX009 (ip), vehicle: saline 103 % of control

O=C(O)c1ccc(C(Cl)(Cl)Cl)cc1
inactive: [11] 105 % of control | [12] 103 % of control | [13] 98 % of control

COc1ccc([C@@H]2c3cc4c(cc3C[C@H]3COC(=O)[C@@H]32)OCO4)cc1OC
inactive: dose: 11.0 mg/kg/injection, schedule: Q01DX009 (ip), vehicle: saline with Tween-80 124 % of control | dose: 22.0 mg/kg/injection, schedule: Q01DX009 (ip), vehicle: saline with Tween-80 111 % of control | dose: 33.0 mg/kg/injection, schedule: Q01DX009 (ip), vehicle: saline with Tween-80 124 % of control | dose: 67.0 mg/kg/injection, schedule: Q01DX009 (ip), vehicle: saline with Tween-80 113 % of control

COc1ccc(CC2C(=O)NC(C)C(=O)N(C)C3C(=O)N(C)C(Cc4ccc(O)c(c4)Oc4ccc(cc4)C3O)C(=O)NC(C)C(=O)NC(C)C(=O)N2C)cc1 (stereo unspecified)
inactive: dose: 125.0 micrograms/kg/injection, schedule: Q01DX009 (ip), vehicle: saline with Tween-80 118 % of control
active: dose: 0.5 mg/kg/injection, schedule: Q01DX009 (ip), vehicle: saline with Tween-80 152 % of control

CC1CCC2C1C1C(CCC2(C)O)C1(C)C (stereo unspecified)
inactive: [1] 97 % of control | [2] 94 % of control | dose: 300.0 mg/kg/injection, schedule: Q01DX009 (ip), vehicle: Klucel (hydroxypropylcellulose) (HPC) 97 % of control

CCOC(=O)C(Cc1ccc(Cl)cc1)(Cc1ccc(Cl)cc1)C(=O)OCC
inactive: [4] 106 % of control | [5] 100 % of control | dose: 400.0 mg/kg/injection, schedule: Q01DX009 (ip), vehicle: Klucel (hydroxypropylcellulose) (HPC) 93 % of control

O=C(CCl)NCC(=O)NC(Cc1ccccc1)C(=O)O (stereo unspecified) (ClAc-Gly-[ξF]-OH)
inactive: [12] 103 % of control | [13] 100 % of control | [14] 93 % of control

CCCC[S+](CCCC)CC(=O)c1ccc(-c2ccccc2)cc1
inactive: dose: 1.56 mg/kg/injection, schedule: Q01DX009 (ip), vehicle: saline 110 % of control | [18] 96 % of control | [15] 95 % of control | [16] 94 % of control | [17] 105 % of control

CN(C)CCCC1c2ccccc2Oc2ccc(C(F)(F)F)cc21 (stereo unspecified)
inactive: dose: 3.12 mg/kg/injection, schedule: Q01DX009 (ip), vehicle: saline 86 % of control | [15] 88 % of control | [16] 100 % of control | [17] 97 % of control

CCCNCCN
inactive: [17] 109 % of control | dose: 50.0 mg/kg/injection, schedule: Q01DX009 (ip), vehicle: saline 116 % of control | dose: 100.0 mg/kg/injection, schedule: Q01DX009 (ip), vehicle: saline 96 % of control

O=C(Nc1cccc(C(F)(F)F)c1)NC1CCCCC1
inactive: dose: 100.0 mg/kg/injection, schedule: Q04DX003 (ip), vehicle: gum acacia 87 % of control | dose: 200.0 mg/kg/injection, schedule: Q04DX003 (ip), vehicle: gum acacia 89 % of control | dose: 400.0 mg/kg/injection, schedule: Q04DX003 (ip), vehicle: gum acacia 87 % of control

NC(=S)N/N=C/c1cccc(CC(O)(C(F)(F)F)C(F)(F)F)n1
inactive: dose: 6.25 mg/kg/injection, schedule: Q01DX009 (ip), vehicle: saline with Tween-80 95 % of control | [6] 116 % of control | [10] 90 % of control | [7] 116 % of control | [11] 88 % of control | [8] 100 % of control

Cc1cc(C(C)(CC(C)C)c2ccc(O)c(C)c2)ccc1O
inactive: [11] 107 % of control | [12] 94 % of control

COc1ccc(NC(=O)Nc2ccc(C)cc2C)cc1
inactive: dose: 25.0 mg/kg/injection, schedule: Q01DX009 (ip), vehicle: Klucel (hydroxypropylcellulose) (HPC) 106 % of control | [9] 101 % of control | [4] 106 % of control | [5] 93 % of control
